Assay results taken from patent publication US20150164899A1, “INHIBITION OF ADAPTOR ASSOCIATED KINASE 1 FOR THE TREATMENT OF PAIN” (priority 2012, published 2015).
Where two headings read alike, the source gives them in different places.

Biological target: T1, AAK1 (full length human) in transfected HEK293F cells (Homo sapiens, UniProt Q2M2I8)
T1 construct: expressed in transfected cells; host or cells: HEK293F
Test: HEK281 cell-based assay (phospho-mu2 Western blot)
Settings: HEK281 cell-based assay, read-out: CBA IC50
Procedure: HEK293F cells were cultured in media containing DMEM (Gibco, cat. #11965), 10% FBS (SAFC Biosciences, cat. #12103C), 1×GPS (glutamine, penicillin and streptomycin). On day one, cells were plated on a 10 cm dish so that they are ˜80% confluent at time of transfection. Roughly 12 million cells were in a 10 cm dish at time of transfection. On day two, each dish was transfected with 48 ug DNA and 144 ul Lipofectamine 2000 (Invitrogen, cat.#11668-019). The DNA was comprised of a mixture (per 10 cm dish) containing 3 ug AAK1/HA/pIRES (full length human, NCBI accession no. NP_055726.2), 45 μg Flag/AP2MI/pcDNA (full length human), and 1.5 ml OPTI-MEM. The Lipofectamine 2000 is made up of a mixture (per 10 cm dish) containing 144 μl Lipofectamine 2000 and 1.5 ml OPTI-MEM. Each mixture was transferred to individual 15 ml tubes and incubated at RT for 5 minutes, and then the two mixes were combined and incubated at RT for 20 minutes. Growth media was then aspirated from each 10 cm plate and replaced with 10 ml of DMEM+10% FBS (no GPS). Finally, 3 ml DNA/Lipofectamine mix was added to each 10 cm dish and mix gently followed by incubate of plate overnight at 37° C. and 5% CO2.
On day three, compounds were diluted in 100% DMSO at 1000× final concentration, followed by 3-fold serial dilutions for a total of 5 concentrations tested. Four compounds were tested per 10 cm dish. One ul of each compound dilution was then pipetted into a deep-well, 96-well plate, followed by addition of 500 μl DMEM+0.5% FBS into each well for a 2× final concentration of each compound. Cells were resuspended in a 10 cm dish by simple pipetting (HEK293 cells come off the plate that easy at this point) and then transferred to a 50 ml conical tube and pelleted by centrifugation at 1000 rpm for 5 min. Cell pellets were then resuspended in 2.75 ml DMEM+0.5% FBS per 10 cm dish and 100 μl of cell suspension transferred into each well of 96-well TC plate. Finally, 100 μl of 2× compound diluted in DMEM+0.5% FBS was then added into wells containing cell suspension for a 1× final concentration. Plates were then incubated at 37° C. and 5% CO2 for 3 hours followed by transferring of cell suspensions from each well into 12-tube PCR strips. The PCR strips were spun in a tip rack at 1000 rpm for 5 minutes to pellet cells and media was then removed by pipetting without disturbing the cell pellet.
To prepare for Western Blot analysis, cell pellets were resuspend in 40 ul 1×LDS-PAGE sample buffer (Invitrogen, cat.# NP0008)+2× Halt phophatase and protease inhibitor cocktail (Thermo Scientific, cat.#1861284), followed by sonicating each with microtip sonicator set at 5 for 8-10 seconds. Five ul of 10× NuPage Sample Reducing Agent (with […]) was to each sample followed by heat denaturing at 70 C. for 10 min on PCR machine. A total of 10 μl per sample was loaded into each lane of a 4-20% Tris-Glycine Criterion 26-well gel (Biorad, cat.#345-0034) for the phospho-mu2 blot and 10 μl per lane in a 4-12% Bis-Tris (+MES buffer) NuPAGE 26-well gel (Invitrogen, cat.# WG1403BX10) for the mu2 blot. For controls, 2 ng of phospho-mu2 or 20 ng mu2/Flag proteins were loaded in the last well of each gel. After SDS-PAGE, samples on each gel were transferred to PVDF membrane using an iBlot and membranes were blocked for one hour in TBST+5% milk, followed by wash 3× for 5-10 min with TBST. Criterion gels were probed with rabbit anti-phospho-mu2 (1:5000; a rabbit polyclonal antibody produced by New England Peptide and affinity purified at Lexicon) in TBST+5% BSA, whereas, NuPAGE gels were probed with mouse anti-Flag (1:500; Sigma, cat.# F1804) in TBST+5% milk, and these primary antibodies were incubated overnight at 4° C. on a rocker.

[1] = pyrazolo[1,5-a]pyrimidine-based inhibitors
[2] = Table 1 imidazo[1,2-b]pyridazines

T1 sequence (Q2M2I8 1-863 isoform Q2M2I8-2): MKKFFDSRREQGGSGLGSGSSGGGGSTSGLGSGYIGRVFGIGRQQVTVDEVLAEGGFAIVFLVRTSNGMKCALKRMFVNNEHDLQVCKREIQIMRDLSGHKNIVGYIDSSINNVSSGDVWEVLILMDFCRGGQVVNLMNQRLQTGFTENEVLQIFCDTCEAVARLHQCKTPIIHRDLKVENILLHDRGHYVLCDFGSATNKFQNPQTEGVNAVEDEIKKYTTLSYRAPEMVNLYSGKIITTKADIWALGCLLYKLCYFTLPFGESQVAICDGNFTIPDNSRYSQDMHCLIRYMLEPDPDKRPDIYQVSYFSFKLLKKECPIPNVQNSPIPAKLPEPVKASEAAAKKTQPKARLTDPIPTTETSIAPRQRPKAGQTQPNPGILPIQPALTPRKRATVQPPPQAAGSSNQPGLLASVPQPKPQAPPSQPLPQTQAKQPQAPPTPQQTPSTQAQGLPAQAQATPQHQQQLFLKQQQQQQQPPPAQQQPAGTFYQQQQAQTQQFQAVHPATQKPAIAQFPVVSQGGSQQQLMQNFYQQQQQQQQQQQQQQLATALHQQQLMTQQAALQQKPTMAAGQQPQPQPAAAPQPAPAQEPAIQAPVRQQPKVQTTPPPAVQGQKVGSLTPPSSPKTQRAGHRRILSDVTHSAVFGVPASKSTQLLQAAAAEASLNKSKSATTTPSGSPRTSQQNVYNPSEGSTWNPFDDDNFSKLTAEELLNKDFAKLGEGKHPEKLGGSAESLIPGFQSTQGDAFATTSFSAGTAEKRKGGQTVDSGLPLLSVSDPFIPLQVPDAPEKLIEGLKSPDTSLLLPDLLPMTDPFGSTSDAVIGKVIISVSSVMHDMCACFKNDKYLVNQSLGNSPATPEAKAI

Row | SMILES | IC50 [1] [µM] | IC50 [2] [µM]
1 | COCCNc1ccn2ncc(-c3ccc(C(=O)NCCN)cc3)c2n1 | ≤ 1 | 
2 | CN(CCNc1ccc2ncc(-c3ccccc3)n2n1)C(=O)OC(C)(C)C |  | ≤ 0.1
3 | COc1cnccc1-c1cnn2ccc(NCCN(C)C(=O)OC(C)C)nc12 | ≤ 0.01 | 
4 | CN(C)CCOCc1ccc(-c2cnc3ccc(NCCC(C)(C)C)nn23)cc1 |  | ≤ 0.1
5 | CCc1ccccc1-c1cnn2ccc(NC[C@@H]3CCCN3C(=O)OC(C)(C)C)nc12 | ≤ 0.1 | 
6 | COc1cnccc1-c1cnn2ccc(NCCOC3CCCC3)nc12 | ≤ 0.1 | 
7 | COc1cnccc1-c1cnn2ccc(NCCc3ccccc3OC(F)(F)F)nc12 | ≤ 0.01 | 
8 | CC(C)(C)OCCNc1ccn2ncc(-c3ccc(CN)cc3)c2n1 | ≤ 0.1 | 
9 | NCc1ccc(-c2cnc3ccc(NCC4CCCCC4)nn23)cc1 |  | ≤ 1
10 | CC(C)OC(=O)N(C)CCNc1ccn2ncc(-c3ccc(C4CCCN4)cc3)c2n1 (stereo not shown) | ≤ 0.01 | 
11 | CC(C)OC(=O)N1CCN(c2ccn3ncc(-c4cccnc4F)c3n2)CC1 | ≤ 0.1 | 
12 | COc1nc(C)ccc1-c1cnn2ccc(N3CCN(C(=O)OC(C)C)CC3)nc12 | ≤ 0.1 | 
13 | CC(C)OC(=O)N1CCN(c2ccn3ncc(-c4cccn(C)c4=O)c3n2)CC1 | ≤ 0.1 | 
14 | COc1ccncc1-c1cnn2ccc(NCCc3ccccc3OC(F)(F)F)nc12 | ≤ 0.1 | 
15 | CC(=O)c1cccc(-c2ccc3ncc(-c4ccc(CN)cc4)n3n2)c1 |  | ≤ 0.1
16 | NCc1ccc(-c2cnn3ccc(NCCOC4CCCC4)nc23)cc1 | ≤ 0.1 | 
17 | CC(C)(C)COCCNc1ccn2ncc(-c3ccc(CN)cc3)c2n1 | ≤ 0.1 | 
18 | COc1cnccc1-c1cnc2ccc(-c3cccc(C(=O)NCC(C)C)c3)nn12 |  | ≤ 0.1
19 | CNC(=O)c1ccc(-c2cnc3ccc(-c4cccc(C(=O)NCC(C)C)c4)nn23)cc1 |  | ≤ 0.1
20 | COc1ccccc1-c1cnn2ccc(NC[C@@H]3CCCN3C(=O)NC(C)(C)C)nc12 | ≤ 0.1 | 
21 | COCCNc1ccn2ncc(-c3ccc(C(=O)NCCNC(=O)OC(C)(C)C)cc3)c2n1 | ≤ 1 | 
22 | CC(C)OC(=O)N(C)CCNc1ccn2ncc(-c3ccc(C(N)=O)cc3)c2n1 | ≤ 0.01 | 

Row | SMILES | IC50 [1] [µM] | IC50 [2] [µM]
23 | CC(C)(C)OC(=O)N1CCC[C@H]1CCNc1ccc2ncc(-c3ccc(CN)cc3)n2n1 |  | ≤ 0.1
24 | CNC(=O)c1ccc(-c2cnn3ccc(NCCN(C)C(=O)OCC(C)C)nc23)cc1 | ≤ 1 | 
25 | CC(C)(C)OC(=O)N1CCC[C@H]1CNc1ccn2ncc(C(F)(F)F)c2n1 | ≤ 0.1 | 
26 | CCOc1ncccc1-c1cnn2ccc(N3CCN(C(=O)OC(C)C)CC3)nc12 | ≤ 0.1 | 
27 | CC(C)(C)OCCNc1ccc2ncc(-c3ccc(C(N)=O)cc3)n2n1 |  | ≤ 0.1
28 | CC(C)NC(=O)N1CCN(c2ccc3ncc(-c4ccccc4)n3n2)CC1 |  | ≤ 0.1
29 | CNC(=O)c1ccc(-c2cnn3ccc(NCCN(C)C(=O)OC(C)(C)C)nc23)cc1 | ≤ 0.01 | 
30 | COc1ncccc1-c1cnn2ccc(N3CCN(C(=O)CC(C)C)CC3)nc12 | ≤ 0.1 | 
31 | COc1cccc(CCNc2ccc3ncc(-c4ccc(C(N)=O)cc4)n3n2)c1 |  | ≤ 0.1
32 | CN(CCNc1ccc2ncc(-c3ccc(C#N)cc3)n2n1)C(=O)OC(C)(C)C |  | ≤ 0.1
33 | COCCNc1ccn2ncc(-c3ccc(CN)cc3)c2n1 | ≤ 0.1 | 
34 | COc1cnccc1-c1cnn2ccc(NCCN(C)C(=O)OC(C)(C)C)nc12 | ≤ 0.01 | 
35 | CC(C)(C)CCNc1ccn2ncc(-c3ccc(C(=O)NCCN)cc3)c2n1 | ≤ 1 | 
36 | COc1cnccc1-c1cnc2ccc(-c3cccc(C(=O)CCC(C)C)c3)nn12 |  | ≤ 0.1
37 | CNCCNC(=O)c1ccc(-c2cnn3ccc(NCCN(C)C(=O)OC(C)C)nc23)cc1 | ≤ 0.1 | 
38 | CC(C)OC(=O)N(C)CCNc1ccn2ncc(-c3ccc(CN)cc3)c2n1 | ≤ 0.1 | 
39 | COCCOC(=O)N1CCN(c2ccn3ncc(-c4cccnc4OC)c3n2)CC1 | ≤ 0.1 | 
40 | CC(C)CNC(=O)c1cccc(-c2ccc3ncc(-c4ccc(CN)cc4)n3n2)c1 |  | ≤ 0.1
41 | Brc1cnn2ccc(NCCCOC3CCCC3)nc12 | ≤ 1 | 
42 | CCCCNc1ccn2ncc(-c3ccc(C(=O)NCCN)cc3)c2n1 | ≤ 0.1 | 
43 | CNC(=O)c1ccc(-c2cnn3ccc(NCCN(C)C(=O)OC(C)C)nc23)cc1 | ≤ 0.01 | 
44 | CCCCNc1ccc2ncc(C(=O)Nc3ccc(C(=O)NCCN(C)C)cc3)n2n1 |  | ≤ 0.1

Row | SMILES | IC50 [1] [µM] | IC50 [2] [µM]
45 | CN(CCNc1ccn2ncc(-c3ccc(C(N)=O)cc3)c2n1)C(=O)OC(C)(C)C | ≤ 0.01 | 
46 | COCCNc1ccn2ncc(-c3ccccc3)c2n1 | ≤ 1 | 
47 | CCCCSc1ccc2ncc(-c3ccc(CN)cc3)n2n1 |  | ≤ 1
48 | CC(C)(C)OC(=O)N1CCC[C@H]1CNc1ccn2ncc(I)c2n1 | ≤ 0.1 | 
49 | CCCCNc1ccn2ncc(-c3ccc(C(=O)NCCNC)cc3)c2n1 | ≤ 0.1 | 
50 | COc1ncc(F)cc1-c1cnn2ccc(N3CCN(C(=O)OC(C)C)CC3)nc12 | ≤ 0.1 | 
51 | COc1ccncc1-c1cnn2ccc(NCCN(C)C(=O)OC(C)C)nc12 | ≤ 0.1 | 
52 | CC(C)(C)OC(=O)N1CCC[C@H]1CNc1ccn2ncc(-c3ccccc3)c2n1 | ≤ 0.1 | 
53 | CCCCNc1ccn2ncc(-c3ccc(CN)cc3)c2n1 | ≤ 0.1 | 
54 | CCOC(=O)N(C)CCNc1ccn2ncc(-c3ccc(C(=O)NC)cc3)c2n1 | ≤ 0.1 | 
55 | CC(C)CNC(=O)c1cncc(-c2ccc3ncc(-c4ccc(CN)cc4)n3n2)c1 |  | ≤ 0.1
56 | CCCCNc1ccc2ncc(-c3ccc(CN)c(F)c3)n2n1 |  | ≤ 1
57 | NCc1ccc(-c2cnn3ccc(NCCc4ccccc4OC(F)(F)F)nc23)cc1 | ≤ 0.01 | 
58 | NCc1ccc(-c2cnn3ccc(NCCCOC4CCCC4)nc23)cc1 | ≤ 0.1 | 
59 | CC(C)CCC(=O)c1cccc(-c2ccc3ncc(-c4ccc(CN)cc4)n3n2)c1 |  | ≤ 0.1
60 | COc1cnccc1-c1cnn2ccc(NCCCOC3CCCC3)nc12 | ≤ 0.1 | 
61 | CC(C)(C)OC(=O)N1CCC[C@H]1CNc1ccn2ncc(-c3ccc(C(N)=O)cc3)c2n1 | ≤ 1 | 
62 | CC(C)OC(=O)N1CCC[C@H]1CNc1ccc2ncc(Cl)n2n1 |  | ≤ 0.1
63 | COc1cnccc1-c1cnn2ccc(N3CCN(C(=O)OC(C)C)CC3)nc12 | ≤ 0.1 | 
64 | COc1cnccc1-c1cnn2ccc(NCCOC(C)(C)C)nc12 | ≤ 0.1 | 
